Tested on: insects
Assay: Previous experiments, treatment of insects with 1% SLS alone (data not shown)
Assay type: in vivo
Conditions: 300 second time period used in testing

SMILES: CCCCCCCCCCCCOS(=O)(=O)[O-].[Na+] [1% SLS, sodium lauryl sulfate]
- Kill time: > 300 s

Reference: patent US9642373B2, “Insecticidal compositions and methods of using same” (Woodstream Corporation, priority 2004, dated 2017)
